Experimental data reported in patent publication US9458092B2, “α-Substituted glycinamide derivative” (KISSEI PHARMACEUTICAL CO., LTD., priority 2013, dated 2016).

Assays:
[1] = tested on: overactive bladder induced by acetic acid; test: Confirmation test of elongation action of micturition interval of overactive bladder induced by acetic acid; assay type: in vivo, female SD rats; conditions: Rattus norvegicus, iv, interval before administration = 100%
Protocol: Urethane (sigma) was dissolved into pure water by 25% w/v, and female SD rats were anesthetized with 1.25 g/kg urethane by subcutaneous administration. Cannulae were placed in femoral vein and bladder, and the bladder cannula was connected to both a syringe pump and a pressure transducer. Detrusor overactivity was induced by intravesical infusion of 0.25% acetic acid in saline at a rate of 3.6 mL/h, and intravesical pressure was monitored via pressure transducer concurrently. Test compounds were dissolved into a mixture of dimethylacetamide and saline (20:80), and were administered via the femoral vein. When an average of the three micturition interval before administration was taken as 100%, an average of the three micturition interval after administration was calculated as Elongation of micturition interval (%) Dose and results are shown in tables 46 and 47.

TRPM8 = TRPM8 (Rattus norvegicus, UniProt Q8R455); test: Confirmation test of inhibitory effects on icilin-induced wet-dog shakes; assay type: in vivo, female SD rats; set-up: test compounds were orally administered to female SD rats; from tissue; host or cells: whole animal (female SD rats), endogenous channel; conditions: icilin 1 mg/kg i.p. after 1 hour, shakes counted for 5 minutes
Chain of TRPM8 (Q8R455 whole entry): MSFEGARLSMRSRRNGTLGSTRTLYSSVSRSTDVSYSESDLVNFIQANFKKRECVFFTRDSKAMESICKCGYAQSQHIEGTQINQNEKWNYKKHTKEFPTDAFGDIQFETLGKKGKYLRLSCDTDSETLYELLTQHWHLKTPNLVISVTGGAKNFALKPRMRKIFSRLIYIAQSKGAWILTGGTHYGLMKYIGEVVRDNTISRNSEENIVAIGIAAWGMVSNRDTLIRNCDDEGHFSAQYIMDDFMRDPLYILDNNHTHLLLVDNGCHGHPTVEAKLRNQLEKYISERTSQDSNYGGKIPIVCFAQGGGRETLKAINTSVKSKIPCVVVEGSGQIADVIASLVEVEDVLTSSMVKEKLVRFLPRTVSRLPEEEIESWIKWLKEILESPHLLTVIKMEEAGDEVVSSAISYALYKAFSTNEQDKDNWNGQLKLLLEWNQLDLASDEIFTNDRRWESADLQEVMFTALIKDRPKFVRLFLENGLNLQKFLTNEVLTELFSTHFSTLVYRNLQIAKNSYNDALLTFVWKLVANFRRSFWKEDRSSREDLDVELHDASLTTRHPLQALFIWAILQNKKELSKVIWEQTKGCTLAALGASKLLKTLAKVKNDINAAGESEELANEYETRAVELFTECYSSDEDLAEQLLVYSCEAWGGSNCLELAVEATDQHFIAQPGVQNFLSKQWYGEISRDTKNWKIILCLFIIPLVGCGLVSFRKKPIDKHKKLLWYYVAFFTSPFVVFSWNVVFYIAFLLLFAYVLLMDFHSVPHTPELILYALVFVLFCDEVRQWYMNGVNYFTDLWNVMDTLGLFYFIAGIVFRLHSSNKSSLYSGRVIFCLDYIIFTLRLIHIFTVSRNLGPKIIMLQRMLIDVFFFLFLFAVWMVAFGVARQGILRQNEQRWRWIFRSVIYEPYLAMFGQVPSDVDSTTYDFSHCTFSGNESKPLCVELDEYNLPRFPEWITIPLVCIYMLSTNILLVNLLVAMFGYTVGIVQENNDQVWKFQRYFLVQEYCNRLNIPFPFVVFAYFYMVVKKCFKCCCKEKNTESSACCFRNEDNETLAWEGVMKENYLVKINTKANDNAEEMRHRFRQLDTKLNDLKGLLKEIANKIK
Protocol: Test compounds were dissolved in dimethylacetamide (wako), and 0.5% methylcellulose solution (wako) was added to make the solution or suspension containing 5% of dimethylacetamide. At a dose of 3 or 10 mg/kg/5 mL of test compounds were orally administered to female SD rats. After 1 hour, wet-dog shakes were induced by the intrapenitoneal injection of icilin (1 mg/kg) which was dissolved in polyethylene glycol 400 (wako). From 5 minutes after the administration of icilin, wet-dog shakes were counted for 5 minutes. For control example, vehicle (a mixture of dimethylacetamide (wako): 0.5% methylcellulose (wako)=5:95) was administrated similarly, and the number of wet-dog shakes was counted in the same manner. A percent inhibition of wet-dog shakes by test compound was calculated from the following formula: [1-(test compound wet-dog shake count/vehicle wet-dog shake count)]×100.

[2] = 1 mg/kg/ml via the femoral vein
[3] = 1 mg/kg/2 ml via the femoral vein

Compound	% inhibition of Wet-Dog Shake (TRPM8; dose 10 mg/kg orally)	% inhibition of Wet-Dog Shake (TRPM8; dose 3 mg/kg orally)	other results
NC(=O)[C@@H](c1ccccc1)N(C(=O)c1cccnc1)[C@@H]1CCc2c(F)cc(F)cc21 [Example 1-1, N-[(R)-Carbamoylphenylmethyl]-N-[(R)-4,6-difluoroindan-1-yl]nicotinamide]	95%	–	response vs control in vivo at 1 mg/kg [1, 2]: 209%
NC(=O)[C@@H](c1ccccc1)N(C(=O)c1cccnc1N)[C@@H]1CCc2c(F)cc(F)cc21 [Example 1-3, 2-Amino-N-[(R)-carbamoylphenylmethyl]-N-[(R)-4,6-difluoroindan-1-yl]nicotinamide]	–	69%	response vs control in vivo at 1 mg/kg [1, 2]: 200%
NC(=O)[C@@H](c1ccccc1)N(C(=O)c1ccccc1)[C@@H]1CCc2ccc(Cl)cc21 [Example 2-2LP, N-[(R)-Carbamoylphenylmethyl]-N-[(R)-6-chloroindan-1-yl]benzamide]	100%	–	response vs control in vivo at 1 mg/kg [1, 3]: 221%
COc1ccc2c(c1)[C@H](N(C(=O)c1ccccc1)[C@@H](C(N)=O)c1ccccc1)CC2 [Example 2-4LP, N-[(R)-Carbamoylphenylmethyl]-N-[(R)-6-methoxyindan-1-yl]benzamide]	79%	–	response vs control in vivo at 1 mg/kg [1, 3]: 156%
NC(=O)[C@@H](c1ccccc1)N(C(=O)c1ccccc1)[C@@H]1CCc2ccc(C3CC3)cc21 [Example 2-5LP, N-[(R)-carbamoylphenylmethyl]-N-[(R)-6-cyclopropylindan-1-yl]benzamide]	89%	–	response vs control in vivo at 1 mg/kg [1, 3]: 177%
NC(=O)[C@@H](c1ccccc1)N(C(=O)c1ccccc1)[C@@H]1CCc2c(F)cc(Cl)cc21 [Example 2-6LP, N-[(R)-carbamoylphenylmethyl]-N-[(R)-6-chloro-4-fluoroindan-1-yl]benzamide]	–	69%	response vs control in vivo at 0.3 mg/kg ([1]; 0.3 mg/kg/ml via the femoral vein): 184%
NC(=O)[C@@H](c1ccccc1)N(C(=O)c1cccc2c1OCO2)[C@@H]1CCc2c(F)cc(Cl)cc21 [Example 2-173LP, N-[(R)-carbamoylphenylmethyl]-N-[(R)-6-chloro-4-fluoroindan-1-yl]benzo[1,3]dioxole-4-carboxamide]	–	99%	–
Cc1nccnc1C(=O)N([C@@H]1CCc2c(F)cc(Cl)cc21)[C@@H](C(N)=O)c1ccccc1 [Example 2-175LP, N-[(R)-carbamoylphenylmethyl]-N-[(R)-6-chloro-4-fluoroindan-1-yl]-3-methylpyrazine-2-carboxamide]	–	40%	–
NC(=O)[C@@H](c1ccccc1)N(C(=O)c1cnccn1)[C@@H]1CCc2c(F)cc(Cl)cc21 [Example 2-179LP, N-[(R)-carbamoylphenylmethyl]-N-[(R)-6-chloro-4-fluoroindan-1-yl]pyrazine-2-carboxamide]	–	32%	–
COc1ncccc1C(=O)N([C@@H]1CCc2c(F)cc(Cl)cc21)[C@@H](C(N)=O)c1cccnc1 [Example 2-180LP, N-[(R)-carbamoylpyridin-3-ylmethyl]-N-[(R)-6-chloro-4-fluoroindan-1-yl]-2-methoxynicotinamide]	–	32%	–
N#Cc1ccc2c(c1)[C@H](N(C(=O)c1ccccc1O)[C@@H](C(N)=O)c1ccccc1)CC2 [Example 3-2, N-[(R)-carbamoylphenylmethyl]-N-[(R)-6-cyanoindan-1-yl]-2-hydroxybenzamide]	73%	–	–
NC(=O)[C@@H](c1ccccc1)N(C(=O)c1ccccc1O)[C@@H]1COc2ccc(Cl)cc21 [Example 4-2, N-[(R)-carbamoylphenylmethyl]-N-[(S)-5-chloro-2,3-dihydrobenzofuran-3-yl]-2-hydroxybenzamide]	86%	–	–
NC(=O)[C@@H](c1cccnc1)N(C(=O)c1ccccc1O)[C@@H]1CCc2c(F)cc(Cl)cc21 [Example 4-5, N-[(R)-carbamoylpyridin-3-ylmethyl]-N-[(R)-6-chloro-4-fluoroindan-1-yl]-2-hydroxybenzamide]	–	76%	–
NC(=O)[C@@H](c1cnccn1)N(C(=O)c1ccccc1O)[C@@H]1CCc2c(F)cc(Cl)cc21 [Example 4-8, N-[(R)-carbamoylpyrazin-2-ylmethyl]-N-[(R)-6-chloro-4-fluoroindan-1-yl]-2-hydroxybenzamide]	–	37%	–
Cc1cccc(C(=O)N([C@@H]2CCc3c(F)cc(Cl)cc32)[C@@H](C(N)=O)c2ccccc2)c1O [Example 4-9, N-[(R)-carbamoylphenylmethyl]-N-[(R)-6-chloro-4-fluoroindan-1-yl]-2-hydroxy-3-methylbenzamide]	–	36%	–
Cc1ncccc1C(=O)N([C@@H]1CCc2c(F)cc(Cl)cc21)[C@@H](C(N)=O)c1cccc(N(C)C)c1 [Example 18-13LP, N-[(R)-carbamoyl-(3-dimethylaminophenyl)methyl]-N-[(R)-6-chloro-4-fluoroindan-1-yl]-2-methylnicotinamide]	86%	–	–
NC(=O)[C@@H](c1cccnc1)N(C(=O)c1ccccc1O)[C@@H]1CCc2c(F)cc(Cl)cc21 [Example 19-1LP, N-[(R)-carbamoylpyridin-3-ylmethyl]-N-[(R)-6-chloro-4-fluoroindan-1-yl]-2-hydroxybenzamide]	–	–	response vs control in vivo at 1 mg/kg [1, 2]: 178%
CN(C)c1cccc([C@H](C(N)=O)N(C(=O)c2ccccc2O)[C@@H]2CCc3c(F)cc(Cl)cc32)c1 [Example 19-6LP, N-[(R)-carbamoyl-(3-dimethylaminophenyl)methyl]-N-[(R)-6-chloro-4-fluoroindan-1-yl]-2-hydroxybenzamide]	99%	–	–
Cc1ccc(C(=O)N([C@@H]2CCc3c(F)cc(Cl)cc32)[C@@H](C(N)=O)c2cccnc2)c(O)c1 [Example 19-12LP, N-[(R)-carbamoylpyridin-3-ylmethyl]-N-[(R)-6-chloro-4-fluoroindan-1-yl]-2-hydroxy-4-methylbenzamide]	82%	–	–
NC(=O)[C@@H](c1cccnc1)N(C(=O)c1c(O)cccc1F)[C@@H]1CCc2c(F)cc(Cl)cc21 [Example 19-15LP, N-[(R)-carbamoylpyridin-3-ylmethyl]-N-[(R)-6-chloro-4-fluoroindan-1-yl]-2-fluoro-6-hydroxybenzamide]	72%	–	–
NC(=O)[C@@H](c1cccnc1)N(C(=O)c1ccc(F)cc1O)[C@@H]1CCc2c(F)cc(Cl)cc21 [Example 19-16LP, N-[(R)-carbamoylpyridin-3-ylmethyl]-N-[(R)-6-chloro-4-fluoroindan-1-yl]-4-fluoro-2-hydroxybenzamide]	63%	–	–
NC(=O)[C@@H](c1cccnc1)N(C(=O)c1ccc(Cl)cc1O)[C@@H]1CCc2c(F)cc(Cl)cc21 [Example 19-17LP, N-[(R)-carbamoylpyridin-3-ylmethyl]-4-chloro-N-[(R)-6-chloro-4-fluoroindan-1-yl]-2-hydroxybenzamide]	66%	–	–
NC(=O)[C@@H](c1cccnc1)N(C(=O)c1cccc(F)c1O)[C@@H]1CCc2c(F)cc(Cl)cc21 [Example 19-25LP, N-[(R)-carbamoylpyridin-3-ylmethyl]-N-[(R)-6-chloro-4-fluoroindan-1-yl]-3-fluoro-2-hydroxybenzamide]	86%	–	–
NC(=O)[C@@H](c1cncc(F)c1)N(C(=O)c1ccccc1O)[C@@H]1CCc2c(F)cc(Cl)cc21 [Example 19-31LP, N-[(R)-Carbamoyl(5-fluoropyridin-3-yl)methyl]-N-[(R)-6-chloro-4-fluoroindan-1-yl]-2-hydroxybenzamide]	–	71%	–
Cc1cccc(C(=O)N([C@@H]2CCc3c(F)cc(Cl)cc32)[C@@H](C(N)=O)c2cccnc2)c1O [Example 19-41LP, N-[(R)-Carbamoylpyridin-3-ylmethyl]-N-[(R)-6-chloro-4-fluoroindan-1-yl]-2-hydroxy-3-methylbenzamide]	92%	–	–
Cc1ncccc1C(=O)N([C@@H]1CCc2c(F)cc(Cl)cc21)[C@@H](C(N)=O)c1cccc(N)c1 [Example 21-1, N-[(R)-(3-Aminophenyl)carbamoylmethyl]-N-[(R)-6-chloro-4-fluoroindan-1-yl]-2-methylnicotinamide]	99%	–	–
NC(=O)[C@@H](c1cccc(N)c1)N(C(=O)c1ccccc1O)[C@@H]1CCc2c(F)cc(Cl)cc21 [Example 21-2, N-[(R)-(3-Aminophenyl)carbamoylmethyl]-N-[(R)-6-chloro-4-fluoroindan-1-yl]-2-hydroxybenzamide]	94%	–	–
